Reference: patent US20220110933A1, “METHODS OF TREATING DISEASE WITH MAGL INHIBITORS” (H. Lundbeck A/S, priority 2019, published 2022)

Experiments:
[1] = system: L-DOPA induced dyskinesia in MPTP-lesioned cynomolgus macaques; experiment: MPTP-lesioned macaque model of L-DOPA induced dyskinesia (LID); type: in vivo, cynomolgus macaque; conditions: for reduction in median peak-dose dyskinesia after L-DOPA administration: single dose 2 h before L-DOPA, 0-2 h post L-DOPA
Description: The study utilized 8 female MPTP-lesioned cynomolgus macaques (10-15 years in age) that have received chronic repeat-treatment with L-DOPA and manifest stable and reproducible dyskinesia, of choreic and dystonic nature, in response to subsequent L-DOPA treatments.
A MGLL inhibitor, Compound 21, (3, 10 and 30 mg/kg), reference drug amantadine (10 mg/kg) and vehicle were administered by oral gavage as a single dose 2 h before a high-dose of L-DOPA (administered as Madopar™). The L-DOPA dose individualized for each animal is one that induced robust and reproducible anti-parkinsonian effects lasting ˜3-4 h but compromised by disabling dyskinesia. The animals were video-recorded for a 6 h period following L-DOPA administration and the effects of each treatment on dyskinesia, parkinsonian disability, duration and quality of anti-parkinsonian benefit (on-time) were scored blinded by a neurologist. Dyskinesia was scored using the non-human primate dyskinesia rating scale (NHPDysRS) and disability was scored using the monkey parkinsonian disability rating scale (mPDRS).
The study design was an ascending dose crossover with all animals receiving each treatment in the order of vehicle, 10 mg/kg amantadine, 3 mg/kg Compound 21, 10 mg/kg Compound 21, and 30 mg/kg Compound 21.

[2] = Plasma exposure and half-life in MPTP-lesioned macaques; type: in vivo, cynomolgus macaque; conditions: cynomolgus monkey

Row | Structure (SMILES) | reduction in median peak-dose dyskinesia after L-DOPA administration ([1]; 10 mg/kg p.o.) [%] | parkinsonian disability ([1]; 10 mg/kg p.o., 0-2 h post L-DOPA administration totals, P<0.05) | concentration at 2 h ([2]; plasma, oral, 10 mg/kg p.o., 2 h post-dose) [ng/mL] | concentration at 8 h ([2]; plasma, oral, 10 mg/kg p.o., 8 h post-dose) [ng/mL] | dyskinesia in the 1-2 h post L-DOPA interval ([1]; 10 mg/kg p.o.) | reduction in median peak-dose dyskinesia after L-DOPA administration ([1]; 30 mg/kg p.o.) [%] | statistical significance of reduction in 0-2 hour total dyskinesia scores ([1]; 3, 10 and 30 mg/kg p.o.) | median peak dose dyskinesia induced by L-DOPA administration ([1]; 3, 10 and 30 mg/kg p.o., 0-2 h post L-DOPA totals) | anti-dyskinetic effects (overall) ([1]; MPTP-lesioned macaque model of L-DOPA induced dyskinesia) | benefit on dystonia and chorea ([1]; data not shown) | therapeutic effects on median dyskinesia ratings compared with amantadine ([1]; versus amantadine 10 mg/kg) | half-life ([2]; in vivo) [min]
1 | NC12CC3CC(CC(C3)C1)C2 [Amantadine, amantadine, reference compound] | 29 | mild and statistically significant worsening | 1300 | 1500 | – | – | – | – | – | – | – | –
2 | O=C(OC(C(F)(F)F)C(F)(F)F)N1CCN(Cc2ccc(Cl)cc2N2CC3CCC(C2)O3)CC1 [Compound 21, 1,1,1,3,3,3-Hexafluoropropan-2-yl 4-(2-(8-oxa-3-azabicyclo[3.2.1]octan-3-yl)-4-chlorobenzyl)piperazine-1-carboxylate] | 45 | – | – | – | significant reduction | 35 | did not reach statistical significance | dose-dependently reduced | robust anti-dyskinetic effects | evidence of benefit on both dystonia and chorea | of greater magnitude | 960 to 2040
